In general, EC50 refers to the concentration that produces a half-maximal response.

In one experiment the test system is HBV rcDNA in HepDE19 cells. Put plainly: HepDE19 assay with bDNA quantitation of HBV rcDNA. It counts as cell-based, hepatitis B virus. The following applies: HepDE19 assay, inhibition of rcDNA formation, bDNA quantitation; read-out: DE-19bDNA EC50.
In the case of `CN(C(=O)c1cc2c(C(F)F)c(F)ccc2[nH]1)C1COCc2[nH]c(=O)c3cc(F)ccc3c21` (single isomer, unassigned) [Compound 255, 4-(Difluoromethyl)-5-fluoro-N-(8-fluoro-6-oxo-1,4,5,6-tetrahydro-2H-pyrano[3,4-c]isoquinolin-1-yl)-N-methyl-1H-indole-2-carboxamide], the EC50 stood at 680 nM.

In the case of `CN(C(=O)c1cc2c(C(F)F)c(F)ccc2[nH]1)C1COCc2[nH]c(=O)c3cc(F)ccc3c21` (single isomer, unassigned) [Compound 256, 4-(Difluoromethyl)-5-fluoro-N-(8-fluoro-6-oxo-1,4,5,6-tetrahydro-2H-pyrano[3,4-c]isoquinolin-1-yl)-N-methyl-1H-indole-2-carboxamide], the concentration giving a half-maximal response (EC50) was 10 nM.

With `CN(C(=O)c1cc2c(C(F)F)cc(F)cc2[nH]1)C1CNCc2[nH]c(=O)c3cc(F)c(F)cc3c21` (single isomer, unassigned) [Compound 257, N-(8,9-Difluoro-6-oxo-1,2,3,4,5,6-hexahydrobenzo[c][1,7]naphthyridin-1-yl)-4-(difluoromethyl)-6-fluoro-N-methyl-1H-indole-2-carboxamide], the EC50 was found to be 2200 nM.

Regarding `CN(C(=O)c1cc2c(C(F)F)cc(F)cc2[nH]1)C1CNCc2[nH]c(=O)c3cc(F)c(F)cc3c21` (single isomer, unassigned) [Compound 258, N-(8,9-Difluoro-6-oxo-1,2,3,4,5,6-hexahydrobenzo[c][1,7]naphthyridin-1-yl)-4-(difluoromethyl)-6-fluoro-N-methyl-1H-indole-2-carboxamide], the EC50 came out at 20 nM.

Consider `CN(C(=O)c1cc2c(C(F)F)cc(F)cc2[nH]1)C1CNCc2[nH]c(=O)c3cc(F)ccc3c21` (single isomer, unassigned) [Compound 259, 4-(Difluoromethyl)-6-fluoro-N-(8-fluoro-6-oxo-1,2,3,4,5,6-hexahydrobenzo[c][1,7]naphthyridin-1-yl)-N-methyl-1H-indole-2-carboxamide], for which the EC50 was 5100 nM.

For the molecule `CN(C(=O)c1cc2c(C(F)F)cc(F)cc2[nH]1)C1CNCc2[nH]c(=O)c3cc(F)ccc3c21` (single isomer, unassigned) [Compound 260, 4-(Difluoromethyl)-6-fluoro-N-(8-fluoro-6-oxo-1,2,3,4,5,6-hexahydrobenzo[c][1,7]naphthyridin-1-yl)-N-methyl-1H-indole-2-carboxamide], the EC50 came out at 60 nM.

For the molecule `CN(C(=O)c1cc2c(C(F)F)c(F)ccc2[nH]1)C1CNCc2[nH]c(=O)c3cc(F)c(F)cc3c21` (single isomer, unassigned) [Compound 264, N-(8,9-Difluoro-6-oxo-1,2,3,4,5,6-hexahydrobenzo[c][1,7]naphthyridin-1-yl)-4-(difluoromethyl)-5-fluoro-N-methyl-1H-indole-2-carboxamide], the EC50 was found to be 8230 nM.

Turning to `CN(C(=O)c1cc2c(C(F)F)c(F)ccc2[nH]1)C1CNCc2[nH]c(=O)c3cc(F)c(F)cc3c21` (single isomer, unassigned) [Compound 265, N-(8,9-Difluoro-6-oxo-1,2,3,4,5,6-hexahydrobenzo[c][1,7]naphthyridin-1-yl)-4-(difluoromethyl)-5-fluoro-N-methyl-1H-indole-2-carboxamide], the EC50 amounted to 20 nM.

Consider `CN(C(=O)c1cc2c(C(F)F)c(F)ccc2[nH]1)C1CNCc2[nH]c(=O)c3cc(F)ccc3c21` (single isomer, unassigned) [Compound 271, 4-(Difluoromethyl)-5-fluoro-N-(8-fluoro-6-oxo-1,2,3,4,5,6-hexahydrobenzo[c][1,7]naphthyridin-1-yl)-N-methyl-1H-indole-2-carboxamide], for which the EC50 is 6700 nM.

As for `CN(C(=O)c1cc2c(C(F)F)c(F)ccc2[nH]1)C1CNCc2[nH]c(=O)c3cc(F)ccc3c21` (single isomer, unassigned) [Compound 272, 4-(Difluoromethyl)-5-fluoro-N-(8-fluoro-6-oxo-1,2,3,4,5,6-hexahydrobenzo[c][1,7]naphthyridin-1-yl)-N-methyl-1H-indole-2-carboxamide], the EC50 came to 70 nM.

`CN(C(=O)c1ccc(-c2cccc(F)c2)cc1)C1CNCc2[nH]c(=O)c3cc(F)c(F)cc3c21` (single isomer, unassigned) [Compound 301, N-(8,9-Difluoro-6-oxo-1,2,3,4,5,6-hexahydrobenzo[c][1,7]naphthyridin-1-yl)-3′-fluoro-N-methyl-[1,1′-biphenyl]-4-carboxamide]: the EC50 was 24500 nM.

On to `CN(C(=O)c1ccc(-c2cccc(F)c2)cc1)C1CNCc2[nH]c(=O)c3cc(F)c(F)cc3c21` (single isomer, unassigned) [Compound 302, N-(8,9-Difluoro-6-oxo-1,2,3,4,5,6-hexahydrobenzo[c][1,7]naphthyridin-1-yl)-3′-fluoro-N-methyl-[1,1′-biphenyl]-4-carboxamide], for which the EC50 was 1060 nM.

For the molecule `CNc1nc2c(c3cc(F)c(F)cc13)C(N(C)C(=O)c1cc3cc(F)c(F)cc3[nH]1)COC2` (single isomer, unassigned) [Compound 333, N-(8,9-Difluoro-6-(methylamino)-1,4-dihydro-2H-pyrano[3,4-c]isoquinolin-1-yl)-5,6-difluoro-N-methyl-1H-indole-2-carboxamide], the EC50 was 530 nM.

Consider `CNc1nc2c(c3cc(F)c(F)cc13)C(N(C)C(=O)c1cc3cc(F)c(F)cc3[nH]1)COC2` (single isomer, unassigned) [Compound 334, N-(8,9-Difluoro-6-(methylamino)-1,4-dihydro-2H-pyrano[3,4-c]isoquinolin-1-yl)-5,6-difluoro-N-methyl-1H-indole-2-carboxamide], for which the EC50 is 10 nM.

Consider `CN(C(=O)c1cc2cc(F)c(F)cc2[nH]1)C1COCc2nc(NCCO)c3cc(F)c(F)cc3c21` (single isomer, unassigned) [Compound 335, N-(8,9-Difluoro-6-((2-hydroxyethyl)amino)-1,4-dihydro-2H-pyrano[3,4-c]isoquinolin-1-yl)-5,6-difluoro-N-methyl-1H-indole-2-carboxamide], for which the half-maximal effective concentration (EC50) worked out at 440 nM.

As for `CN(C(=O)c1cc2cc(F)c(F)cc2[nH]1)C1COCc2nc(NCCO)c3cc(F)c(F)cc3c21` (single isomer, unassigned) [Compound 336, N-(8,9-Difluoro-6-((2-hydroxyethyl)amino)-1,4-dihydro-2H-pyrano[3,4-c]isoquinolin-1-yl)-5,6-difluoro-N-methyl-1H-indole-2-carboxamide], the EC50 is 10 nM.

Turning to `CN(C(=O)c1cc2cc(F)c(F)cc2[nH]1)C1COCc2nc(NCCN)c3cc(F)c(F)cc3c21` (single isomer, unassigned) [Compound 351, N-(6-((2-Aminoethyl)amino)-8,9-difluoro-1,4-dihydro-2H-pyrano[3,4-c]isoquinolin-1-yl)-5,6-difluoro-N-methyl-1H-indole-2-carboxamide], the concentration giving a half-maximal response (EC50) came to 30 nM.

Regarding `CN(C(=O)c1cc2cc(F)c(F)cc2[nH]1)C1COCc2nc(NCCN)c3cc(F)c(F)cc3c21` (single isomer, unassigned) [Compound 352, N-(6-((2-Aminoethyl)amino)-8,9-difluoro-1,4-dihydro-2H-pyrano[3,4-c]isoquinolin-1-yl)-5,6-difluoro-N-methyl-1H-indole-2-carboxamide], the EC50 turned out to be 590 nM.

On to `CC(O)c1cc(F)cc2[nH]c(C(=O)N(C)[C@@H]3COCc4[nH]c(=O)c5cc(F)c(F)cc5c43)cc12` (single isomer, unassigned) [Compound 353], for which the EC50 came to 60 nM.

Regarding `CC(O)c1cc(F)cc2[nH]c(C(=O)N(C)[C@@H]3COCc4[nH]c(=O)c5cc(F)c(F)cc5c43)cc12` (single isomer, unassigned) [Compound 354], the EC50 is 20 nM.

On to `CN(C(=O)c1cc2sccc2[nH]1)C1COCc2[nH]c(=O)c3cc(F)ccc3c21` (single isomer, unassigned) [Compound 380, N-(8-Fluoro-6-oxo-1,4,5,6-tetrahydro-2H-pyrano[3,4-c]isoquinolin-1-yl)-N-methyl-4H-thieno[3,2-b]pyrrole-5-carboxamide], for which the EC50 was 880 nM.

The experiment is the same for the next values; noted with them: Hepatitis B virus, HepDE19, HepDE19 assay, inhibition of rcDNA formation, bDNA quantitation; read-out: DE-19bDNA EC50.
On to `CN(C(=O)c1cccc(-c2cccc(F)c2)c1)C1CNCc2[nH]c(=O)c3cc(F)c(F)cc3c21` (single isomer, unassigned) [Compound 304, N-(8,9-Difluoro-6-oxo-1,2,3,4,5,6-hexahydrobenzo[c][1,7]naphthyridin-1-yl)-3′-fluoro-N-methyl-[1,1′-biphenyl]-3-carboxamide], for which the EC50 turned out to be 20000 nM.

In the case of `CNS(=O)(=O)c1cccc(C(=O)N(C)C2CNCc3[nH]c(=O)c4cc(F)c(F)cc4c32)c1` (single isomer, unassigned) [Compound 319, N-(8,9-Difluoro-6-oxo-1,2,3,4,5,6-hexahydrobenzo[c][1,7]naphthyridin-1-yl)-N-methyl-3-(N-methylsulfamoyl)benzamide], the EC50 amounted to 6800 nM.

In the case of `CN(C(=O)c1cccc(Oc2cccc(F)c2)c1)C1CNCc2[nH]c(=O)c3cc(F)c(F)cc3c21` (single isomer, unassigned) [Compound 339, N-(8,9-Difluoro-6-oxo-1,2,3,4,5,6-hexahydrobenzo[c][1,7]naphthyridin-1-yl)-3-(3-fluorophenoxy)-N-methylbenzamide], the EC50 came to 25000 nM.

For the molecule `CN(C(=O)c1cnc(C(F)(F)F)c(Cl)c1)C1COCc2[nH]c(=O)c3cc(F)ccc3c21` (single isomer, unassigned) [Compound 378, 5-Chloro-N-(8-fluoro-6-oxo-1,4,5,6-tetrahydro-2H-pyrano[3,4-c]isoquinolin-1-yl)-N-methyl-6-(trifluoromethyl)nicotinamide], the EC50 was found to be 18300 nM.

In the case of `CN(C(=O)c1cnc(C(F)(F)F)c(Cl)c1)[C@@H]1COCc2[nH]c(=O)c3cc(F)ccc3c21` (single isomer, unassigned) [Compound 379, 5-Chloro-N-(8-fluoro-6-oxo-1,4,5,6-tetrahydro-2H-pyrano[3,4-c]isoquinolin-1-yl)-N-methyl-6-(trifluoromethyl)nicotinamide], the EC50 came out at 170 nM.
